“And” between values parts separate entries of the source, which are not always exact repeats. Equal entries are not always repeated. Toxic doses and inconclusive results are not listed. Cut-off read from the data, not from the text of the source: active = T/C of 150% or more; inactive = T/C below 125%.
System: L1210 leukemia ip in BDF1 mice, survival T/C
Assay: NCI In Vivo Anticancer Drug Screen. Data for tumor model L1210 Leukemia (intraperitoneal) in B6D2F1 (BDF1) mice
Settings: endpoint: mean survival time, higher = longer survival
How it was run: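 In this screen, tumor-bearing mice given compound are compared to those given vehicle, and their survival values are reported as a treated-to-control quotient.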

[1] = dose: 100.0 mg/kg/injection, schedule: Q01DX001 (ip), vehicle: carboxymethylcellulose (CMC)
[2] = dose: 200.0 mg/kg/injection, schedule: Q01DX001 (ip), vehicle: carboxymethylcellulose (CMC)
[3] = dose: 400.0 mg/kg/injection, schedule: Q01DX001 (ip), vehicle: carboxymethylcellulose (CMC)
[4] = dose: 100.0 mg/kg/injection, schedule: Q01DX001 (ip), vehicle: saline
[5] = dose: 200.0 mg/kg/injection, schedule: Q01DX001 (ip), vehicle: saline
[6] = dose: 400.0 mg/kg/injection, schedule: Q01DX001 (ip), vehicle: saline
[7] = dose: 100.0 mg/kg/injection, schedule: Q04DX003 (ip), vehicle: saline sonified
[8] = dose: 200.0 mg/kg/injection, schedule: Q04DX003 (ip), vehicle: saline sonified
[9] = dose: 100.0 mg/kg/injection, schedule: Q01DX009 (ip), vehicle: saline with Tween-80
[10] = dose: 100.0 mg/kg/injection, schedule: Q04DX003 (ip), vehicle: saline with Tween-80
[11] = dose: 100.0 mg/kg/injection, schedule: Q01DX009 (ip), vehicle: Klucel (hydroxypropylcellulose) (HPC)
[12] = dose: 200.0 mg/kg/injection, schedule: Q01DX009 (ip), vehicle: Klucel (hydroxypropylcellulose) (HPC)
[13] = dose: 400.0 mg/kg/injection, schedule: Q01DX009 (ip), vehicle: Klucel (hydroxypropylcellulose) (HPC)
[14] = dose: 100.0 mg/kg/injection, schedule: Q04DX003 (ip), vehicle: saline
[15] = dose: 200.0 mg/kg/injection, schedule: Q01DX009 (ip), vehicle: saline with Tween-80
[16] = dose: 200.0 mg/kg/injection, schedule: Q04DX003 (ip), vehicle: saline
[17] = dose: 400.0 mg/kg/injection, schedule: Q01DX009 (ip), vehicle: saline with Tween-80
[18] = dose: 400.0 mg/kg/injection, schedule: Q04DX003 (ip), vehicle: saline

Measured: T/C

N/C(=N/O)c1cn(C2OC(CO)C(O)C2O)c2ncnc(NO)c12 (stereo not drawn)
inactive: dose: 12.5 mg/kg/injection, schedule: Q01DX009 (ip), vehicle: saline 121 % of control | dose: 25.0 mg/kg/injection, schedule: Q01DX009 (ip), vehicle: saline 86 % of control

CCCCCCCCCCCCCCn1cnc2c(N)ncnc21
inactive: dose: 12.5 mg/kg/injection, schedule: Q01DX005 (ip), vehicle: other 101 % of control | dose: 25.0 mg/kg/injection, schedule: Q01DX005 (ip), vehicle: other 111 % of control | dose: 50.0 mg/kg/injection, schedule: Q01DX005 (ip), vehicle: other 101 % of control | dose: 100.0 mg/kg/injection, schedule: Q01DX005 (ip), vehicle: other 106 % of control

CSc1ncnc2c1ncn2N1CCCC1COS(=O)(=O)c1ccc(C)cc1 (stereo not drawn)
inactive: dose: 100.0 mg/kg/injection, schedule: Q01DX001 (ip), vehicle: DMSO 96 % of control | dose: 200.0 mg/kg/injection, schedule: Q01DX001 (ip), vehicle: DMSO 90 % of control | dose: 400.0 mg/kg/injection, schedule: Q01DX001 (ip), vehicle: DMSO 95 % of control

O=C(O)c1ccccc1/C=N/NC(=O)C(O)(c1ccccc1)c1ccccc1
inactive: [1] 114 % of control | [2] 101 % of control | [3] 103 % of control

COc1ccccc1CN1CCCN(Cc2ccccc2OC)C1c1ccc(N(CCCl)CCCl)cc1C
inactive: [4] 88 % of control | dose: 100.0 mg/kg/injection, schedule: Q01DX009 (ip), vehicle: saline 98 % of control | [5] 88 % of control | dose: 200.0 mg/kg/injection, schedule: Q01DX009 (ip), vehicle: saline 95 % of control | [6] 87 % of control

Clc1cc2c(cc1CO/N=C\c1ccc3c(c1)OCO3)OCO2
inactive: [7] 90 % of control | [8] 88 % of control

NC1=NC(CCc2ccccc2)N(c2ccc(Cl)cc2)C(N)=N1 (stereo not drawn)
inactive: dose: 14.0 mg/kg/injection, schedule: Q01DX009 (ip), vehicle: steriod suspending solution 98 % of control | dose: 24.0 mg/kg/injection, schedule: Q01DX009 (ip), vehicle: steriod suspending solution 97 % of control | dose: 39.0 mg/kg/injection, schedule: Q01DX009 (ip), vehicle: steriod suspending solution 100 % of control | dose: 65.0 mg/kg/injection, schedule: Q01DX009 (ip), vehicle: steriod suspending solution 100 % of control

O=C1NC(c2ccccc2)(c2ccccc2)C(=O)N1CCN(CCCl)CCCl
inactive: dose: 12.5 mg/kg/injection, schedule: Q01DX009 (ip), vehicle: saline with Tween-80 116 % of control | dose: 25.0 mg/kg/injection, schedule: Q01DX009 (ip), vehicle: saline with Tween-80 102 % of control | dose: 50.0 mg/kg/injection, schedule: Q04DX003 (ip), vehicle: saline with Tween-80 105 % of control | [9] 121 % of control | [10] 116 % of control and 121 % of control

CCCc1nc2ccccc2c(=O)n1/N=C/c1ccsc1
inactive: [7] 101 % of control | [8] 94 % of control | dose: 400.0 mg/kg/injection, schedule: Q04DX003 (ip), vehicle: saline sonified 94 % of control

CCCCCCCCCCCCCC[n+]1ccc(C#N)cc1
inactive: dose: 7.5 mg/kg/injection, schedule: Q04DX003 (ip), vehicle: saline 101 % of control | dose: 15.0 mg/kg/injection, schedule: Q04DX003 (ip), vehicle: saline 95 % of control | dose: 30.0 mg/kg/injection, schedule: Q04DX003 (ip), vehicle: saline 96 % of control

CN(C)C(=S)SCc1c(O)c(C(C)(C)C)cc2cc(C(C)(C)C)ccc12
inactive: dose: 100.0 mg/kg/injection, schedule: Q04DX002 (ip), vehicle: Klucel (hydroxypropylcellulose) (HPC) 105 % of control | dose: 200.0 mg/kg/injection, schedule: Q04DX002 (ip), vehicle: Klucel (hydroxypropylcellulose) (HPC) 110 % of control | dose: 400.0 mg/kg/injection, schedule: Q04DX002 (ip), vehicle: Klucel (hydroxypropylcellulose) (HPC) 102 % of control

COc1ccc(OC)c(NC(=O)Nc2cc(OC)c(Cl)cc2OC)c1
inactive: [11] 105 % of control | [12] 94 % of control | [13] 87 % of control

OC(C[n+]1ccsc1)c1ccccc1 (stereo not drawn)
inactive: dose: 75.0 mg/kg/injection, schedule: Q01DX001 (ip), vehicle: saline 96 % of control | dose: 150.0 mg/kg/injection, schedule: Q01DX001 (ip), vehicle: saline 100 % of control

ClC1=C(Cl)C2(Cl)C3C4C=CC(C4)C3N1C2(Cl)Cl (stereo not drawn)
inactive: dose: 50.0 mg/kg/injection, schedule: Q01DX001 (ip), vehicle: saline with Tween-80 98 % of control | dose: 100.0 mg/kg/injection, schedule: Q01DX001 (ip), vehicle: saline with Tween-80 95 % of control

O=C1OC(c2ccccc2)=N/C1=C\c1ccccc1
inactive: dose: 50.0 mg/kg/injection, schedule: Q01DX001 (ip), vehicle: carboxymethylcellulose (CMC) 93 % of control | [1] 95 % of control | dose: 100.0 mg/kg/injection, schedule: Q04DX002 (ip), vehicle: gum acacia 91 % of control | [2] 101 % of control | dose: 200.0 mg/kg/injection, schedule: Q04DX002 (ip), vehicle: gum acacia 109 % of control | [3] 90 % of control | dose: 400.0 mg/kg/injection, schedule: Q04DX002 (ip), vehicle: gum acacia 98 % of control

CCOC(=O)CC(C)(N)NC(N)=O (stereo not drawn)
inactive: [9] 98 % of control | [14] 104 % of control | [15] 93 % of control | [16] 106 % of control | [17] 90 % of control | [18] 106 % of control

O=C(CCC(=O)Oc1ccc(S(=O)(=O)F)cc1)Oc1ccc(S(=O)(=O)F)cc1
inactive: [14] 92 % of control | [16] 118 % of control | [18] 103 % of control

CCCCCCCCCCCCCCCCCC(=O)NN=C1CCCC1
inactive: [11] 95 % of control | [12] 93 % of control | [13] 107 % of control

CN=C(N)NN
inactive: dose: 30.0 mg/kg/injection, schedule: Q01DX Z (ip), vehicle: methylcellulose (MC) 102 % of control | dose: 60.0 mg/kg/injection, schedule: Q01DX Z (ip), vehicle: methylcellulose (MC) 97 % of control | dose: 120.0 mg/kg/injection, schedule: Q01DX Z (ip), vehicle: methylcellulose (MC) 105 % of control | dose: 175.0 mg/kg/injection, schedule: Q01DX001 (ip), vehicle: saline 105 % of control | dose: 240.0 mg/kg/injection, schedule: Q01DX Z (ip), vehicle: methylcellulose (MC) 98 % of control | dose: 265.0 mg/kg/injection, schedule: Q01DX001 (ip), vehicle: saline 104 % of control | dose: 375.0 mg/kg/injection, schedule: Q01DX Z (ip), vehicle: methylcellulose (MC) 111 % of control | [6] 98 % of control | dose: 480.0 mg/kg/injection, schedule: Q01DX Z (ip), vehicle: methylcellulose (MC) 107 % of control | dose: 600.0 mg/kg/injection, schedule: Q01DX001 (ip), vehicle: saline 104 % of control

COc1cc2c(cc1OC)C(Cc1cc(OC)c(OC)cc1[N+](=O)[O-])=NCC2
inactive: [4] 100 % of control | [5] 98 % of control | [6] 94 % of control

CN(C)c1ccc(/C=N/NC(=O)c2ccncc2)c(Cl)c1
inactive: [11] 96 % of control | [12] 89 % of control | [13] 91 % of control

COC(=O)NC1CCC(NC(=O)OC)CC1 (stereo not drawn)
inactive: dose: 100.0 mg/kg/injection, schedule: Q01DX001 (ip), vehicle: Klucel (hydroxypropylcellulose) (HPC) 96 % of control | dose: 200.0 mg/kg/injection, schedule: Q01DX001 (ip), vehicle: Klucel (hydroxypropylcellulose) (HPC) 93 % of control | dose: 400.0 mg/kg/injection, schedule: Q01DX001 (ip), vehicle: Klucel (hydroxypropylcellulose) (HPC) 91 % of control

CN(C)c1ccc(NC(=O)Nc2cccc(Cl)c2)cc1
inactive: [9] 91 % of control | [10] 94 % of control | [15] 94 % of control | dose: 200.0 mg/kg/injection, schedule: Q04DX003 (ip), vehicle: saline with Tween-80 100 % of control | [17] 92 % of control | dose: 400.0 mg/kg/injection, schedule: Q04DX003 (ip), vehicle: saline with Tween-80 92 % of control

From PubChem BioAssay AID248 (DTP/NCI, 2004)
